Results from patent publication EP4471048A1, “PEPTIDE INHIBITORS OF INTERLEUKIN-23 RECEPTOR” (Zealand Pharma A/S, priority 2023, dated 2024).
Where a SMILES comes first, the peptide text is derived from it. Bridges are numbered along the chain shown (N, C = ends). [ ]: non-standard residue; d: D form. 2Nal = N[C@@H](Cc1ccc2ccccc2c1)C(=O)O; AEF = NCCOc1ccc(C[C@H](N)C(=O)O)cc1; 3Pal = N[C@@H](Cc1cccnc1)C(=O)O; αMeL = CC(C)C[C@](C)(N)C(=O)O; Dab = NCC[C@H](N)C(=O)O

What was measured:
human IL-23R = biological target: T1, human IL-23R (Homo sapiens, UniProt Q5VWK5); assay: biochemical; conditions: for Emax: read-out: % displacement (hIL-23R NIuc)
T1 sequence (Q5VWK5 22-629): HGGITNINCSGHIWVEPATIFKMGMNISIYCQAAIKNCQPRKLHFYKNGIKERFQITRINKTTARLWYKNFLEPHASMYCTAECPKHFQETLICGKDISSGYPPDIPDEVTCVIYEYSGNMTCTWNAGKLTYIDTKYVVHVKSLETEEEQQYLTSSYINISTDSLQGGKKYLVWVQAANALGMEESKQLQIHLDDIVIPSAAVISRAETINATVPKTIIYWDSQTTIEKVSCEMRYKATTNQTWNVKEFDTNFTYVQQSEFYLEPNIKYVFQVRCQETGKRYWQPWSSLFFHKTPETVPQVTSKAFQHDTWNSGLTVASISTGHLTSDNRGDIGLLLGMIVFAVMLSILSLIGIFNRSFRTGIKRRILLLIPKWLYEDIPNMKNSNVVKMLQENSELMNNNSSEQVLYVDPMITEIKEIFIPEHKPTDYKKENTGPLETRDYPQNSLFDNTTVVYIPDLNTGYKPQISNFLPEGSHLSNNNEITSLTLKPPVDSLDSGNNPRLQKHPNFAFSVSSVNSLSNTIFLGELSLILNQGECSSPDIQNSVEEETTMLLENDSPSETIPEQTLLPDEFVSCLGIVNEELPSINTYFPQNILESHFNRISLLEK
Outline: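 Membranes from HEK293 cells stably expressing Nluc-tagged human IL-23R were incubated 2 h at room temperature with test compound and a fluorophore-labelled tracer. After substrate addition, loss of BRET (TAMRA over luciferase emission) reported tracer displacement. A 4PL fit gave IC50 values.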

[1] = Peptide stability in simulated intestinal fluid (SIF); assay type: in vitro ADME; conditions: 37 °C, porcine pancreatin; for remaining at 1 h, 10 µM / remaining at 4 h, 10 µM: pig; for remaining at 1 h, 10 µM: pH 6.8, 1 h; for remaining at 4 h, 10 µM / SIF (% remaining 4 h): pH 6.8, 4 h; for SIF (% remaining 4 h): 10 µM
Method: (§1) SGF was prepared by dissolving sodium chloride (0.2 g) in 50 mL of water. A volume of 0.7 mL of 10 M HCl was added to adjust the pH of the solution to 1.2 and the volume made up to 100 mL with water. […] SIF was prepared by dissolving monobasic potassium phosphate (0.68 g) in 50 mL of water and adjusting the pH to 6.8 with 1 M NaOH. The volume was subsequently made up to 100 mL with water. 200 mg porcine pancreatin (P1625, Sigma Aldrich) was gently dissolved into 20 mL preheated (37 °C) solution (10 g/L) immediately prior to the incubation.
(§2) The incubation was performed at 37 °C with gentle shaking. […] After the last timepoint, the sampling plate was mixed for 10 min on a shaking table and centrifuged 10 min at 2200 g. 70 µL resulting supernatant was diluted with 150 µL water, mixed and centrifugated before analysis by liquid chromatography high resolution mass spectrometry. […] Percent remaining at each timepoint was calculated relative to timepoint zero based on absolute peak areas.
Compounds with a SIF stability (after 4 h) above 70% are considered highly SIF stable.

[2] = Peptide stability in simulated gastric fluid (SGF); assay type: in vitro ADME; conditions: 37 °C, porcine pepsin; for remaining at 1 h, 10 µM / remaining at 4 h, 10 µM: pig, simulated gastric fluid (SGF) with porcine pepsin (3.2 g/L); for remaining at 1 h, 10 µM: pH 1.2, 1 h, read-out: SGF (% remaining 1 h)
Method: as §1, §2
Compounds with a SGF stability (after 4 h) above 70% are considered highly SGF stable. […] Table 3-4: SGF data

[3] = SAR tables, % peptide remaining, read-out: SIF (% after 4 h)
[4] = pH 1.2, 10 µM, pH 1.2, 4 h, read-out: SGF (% remaining 4 h)
[5] = read-out: SIF (% remaining 4 h)

Structure (SMILES) | IC50 (human IL-23R) | Emax (human IL-23R) | remaining at 1 h, 10 µM [1] | remaining at 4 h, 10 µM [1, 3] | remaining at 1 h, 10 µM ([2]; pH 1.2, 10 µM) | remaining at 4 h, 10 µM [2, 4] | % displacement (hIL-23R NIuc) (human IL-23R) | remaining at 4 h, 10 µM [1, 5] | SIF (% remaining 4 h) [1] | SGF (% remaining 4 h) ([2]; 10 µM, pH 1.2, 4 h) | remaining at 4 h, 10 µM ([2]; pH 1.2, SAR tables, % peptide remaining, 10 µM, pH 1.2, 4 h, read-out: SGF (% after 4 h))
CNC(=O)[C@H](Cc1cccnc1)NC(=O)[C@H](CCN)NC(=O)[C@@H]1CCC(=O)NCCCC[C@@H]2NC(=O)CC[C@H](NC(=O)[C@H](CCC(N)=O)NC(=O)[C@H](Cc3c[nH]c4ccccc34)NC2=O)C(=O)N[C@@H](Cc2ccc(OCCN)cc2)C(=O)N[C@@H](Cc2ccc3ccccc3c2)C(=O)N[C@@](C)(CC(C)C)C(=O)N1 [Compound 43, K(1c)(6c)^†WQE(6c)[Y(2-aminoethoxy)][2-Nal][2-Me-Leu]E(1c)[Dab][3-(3-Pyridyl)-Ala]-[NHMe]] (KWQE[AEF][2Nal][αMeL]E[Dab][3Pal]-NHMe; lactam 1-8, N-4) | 80 nM | 100% | 91% | 102% | 110% | 108% |  |  |  |  | 
COc1ccc(C[C@@H]2NC(=O)[C@@H]3CCC(=O)N[C@@H](CCCCNC(=O)CC[C@@H](C(=O)N[C@@H](CCCCNC(=O)c4cccnc4)C(N)=O)NC(=O)[C@](C)(CC(C)C)NC(=O)[C@H](Cc4ccc5ccccc5c4)NC2=O)C(=O)N[C@@H]([C@@H](C)O)C(=O)N[C@@H](C(C)C)C(=O)N[C@@H](Cc2c[nH]c4ccccc24)C(=O)N[C@@H](CCC(N)=O)C(=O)N3)cc1 [Compound 50, K(1c)(6c)^†TVWQE(6c)[Y(Me)][2-Nal][2-Me-Leu]E(1c)[K(nicotinate)]-[NH2]] | 320 nM |  | 95% |  | 78% | 8% | 98% | 81% |  |  | 
CC[C@H](C)[C@@H]1NC(=O)[C@@H]2CCCCNC(=O)CC[C@@H](C(=O)NC3(C(=O)N[C@@H](Cc4cccnc4)C(=O)NC)CCNCC3)NC(=O)[C@](C)(CC(C)C)NC(=O)[C@H](Cc3ccc4ccccc4c3)NC(=O)[C@H](Cc3ccc(OCCN)cc3)NC(=O)[C@H](CCC(=O)N2)NC(=O)[C@H](CCC(N)=O)NC(=O)[C@H](Cc2c[nH]c3ccccc23)NC(=O)[C@H](C(C)C)NC1=O [Compound 62, K(1c)(6c)^†IVWQE(6c)[Y(2-aminoethoxy)][2-Nal][2-Me-Leu]E(1c)[4-Aminopiperidin-4-carbonyl][3-(3-Pyridyl)-Ala]-[NHMe]] | 0.072 nM | 99% | 111% |  | 105% | 108% |  | 87% |  |  | 
CC[C@H](C)[C@@H]1NC(=O)[C@@H]2CCCCNC(=O)CC[C@@H](C(=O)NCCCCC(=O)N[C@@H](Cc3cccnc3)C(=O)NC)NC(=O)[C@](C)(CC(C)C)NC(=O)[C@H](Cc3ccc4ccccc4c3)NC(=O)[C@H](Cc3ccc(OCCN)cc3)NC(=O)[C@H](CCC(=O)N2)NC(=O)[C@H](CCC(N)=O)NC(=O)[C@H](Cc2c[nH]c3ccccc23)NC(=O)[C@H](C(C)C)NC1=O [Compound 64, K(1c)(6c)^†IVWQE(6c)[Y(2-aminoethoxy)][2-Nal][2-Me-Leu]E(1c)[5-Aminopentanoyl][3-(3-Pyridyl)-Ala]-[NHMe]] | 11 nM | 99% | 93% | 86% | 102% | 90% |  |  | 86% |  | 
CC[C@H](C)[C@@H]1NC(=O)[C@@H]2CCCCNC(=O)CC[C@@H](C(=O)N[C@@H](CCN)C(=O)NCCc3cccnc3)NC(=O)[C@](C)(CC(C)C)NC(=O)[C@H](Cc3ccc4ccccc4c3)NC(=O)[C@H](Cc3ccc(OCCN)cc3)NC(=O)[C@H](CCC(=O)N2)NC(=O)[C@H](CCC(N)=O)NC(=O)[C@H](Cc2c[nH]c3ccccc23)NC(=O)[C@H](C(C)C)NC1=O [Compound 66, K(1c)(6c)^†IVWQE(6c)[Y(2-aminoethoxy)][2-Nal][2-Me-Leu]E(1c)[Dab]-[NH-2-(pyridin-3-yl)ethyl]] | 0.12 nM | 101% | 108% |  | 98% | 97% |  | 112% |  |  | 
CC[C@H](C)[C@@H]1NC(=O)[C@@H]2CCCCNC(=O)CC[C@@H](C(=O)N[C@@H](CCN)C(=O)N[C@@H](Cc3cccnc3)C(=O)NC)NC(=O)CNC(=O)[C@H](Cc3ccc4ccccc4c3)NC(=O)[C@H](Cc3ccc(OCCN)cc3)NC(=O)[C@H](CCC(=O)N2)NC(=O)[C@H](CCC(N)=O)NC(=O)[C@H](Cc2c[nH]c3ccccc23)NC(=O)[C@H](C(C)C)NC1=O [Compound 68, K(1c)(6c)^†IVWQE(6c)[Y(2-aminoethoxy)][2-Nal]GE(1c)[Dab][3-(3-Pyridyl)-Ala]-[NHMe]] | 0.072 nM | 99% | 33% | 0% | 91% |  |  |  | 0% | 95% | 95%

The remaining lines, values ahead:

IC50 (human IL-23R) | Emax (human IL-23R) | remaining at 1 h, 10 µM [1] | remaining at 4 h, 10 µM [1, 3] | remaining at 1 h, 10 µM ([2]; pH 1.2, 10 µM) | remaining at 4 h, 10 µM [2, 4] | % displacement (hIL-23R NIuc) (human IL-23R) | remaining at 4 h, 10 µM [1, 5] | SIF (% remaining 4 h) [1] | SGF (% remaining 4 h) ([2]; 10 µM, pH 1.2, 4 h) | remaining at 4 h, 10 µM ([2]; pH 1.2, SAR tables, % peptide remaining, 10 µM, pH 1.2, 4 h, read-out: SGF (% after 4 h)) | Structure (SMILES)
0.12 nM | 101% | 89% | 33% | 112% | 102% |  |  |  |  |  | CC[C@H](C)[C@@H]1NC(=O)[C@@H]2CCCCNC(=O)CC[C@@H](C(=O)N[C@@H](Cc3cnc[nH]3)C(=O)N[C@@H](Cc3cccnc3)C(=O)NC)NC(=O)[C@](C)(CC(C)C)NC(=O)[C@H](Cc3ccc4ccccc4c3)NC(=O)[C@H](Cc3ccc(OCCN)cc3)NC(=O)[C@H](CCC(=O)N2)NC(=O)[C@H](CCC(N)=O)NC(=O)[C@H](Cc2c[nH]c3ccccc23)NC(=O)[C@H](C(C)C)NC1=O [Compound 69, K(1c)(6c)^†IVWQE(6c)[Y(2-aminoethoxy)][2-Nal][2-Me-Leu]E(1c)H[3-(3-Pyridyl)-Ala]-[NHMe]]
0.41 nM | 101% | 101% | 72% | 102% | 95% |  |  |  |  |  | CC[C@H](C)[C@@H]1NC(=O)[C@@H]2CCCCNC(=O)CC[C@@H](C(=O)N[C@H](Cc3cnc[nH]3)C(=O)N[C@@H](Cc3cccnc3)C(=O)NC)NC(=O)[C@](C)(CC(C)C)NC(=O)[C@H](Cc3ccc4ccccc4c3)NC(=O)[C@H](Cc3ccc(OCCN)cc3)NC(=O)[C@H](CCC(=O)N2)NC(=O)[C@H](CCC(N)=O)NC(=O)[C@H](Cc2c[nH]c3ccccc23)NC(=O)[C@H](C(C)C)NC1=O [Compound 70, K(1c)(6c)^†IVWQE(6c)[Y(2-aminoethoxy)][2-Nal][2-Me-Leu]E(1c)[{d}H][3-(3-Pyridyl)-Ala]-[NHMe]]
0.084 nM |  | 55% | 6% | 100% | 100% | 100% |  | 6% |  |  | CC[C@H](C)[C@@H]1NC(=O)[C@@H]2CCCCNC(=O)CC[C@@H](C(=O)N[C@@H](Cc3cnc4ccccc4c3)C(=O)N[C@@H](Cc3cccnc3)C(=O)NC)NC(=O)[C@](C)(CC(C)C)NC(=O)[C@H](Cc3ccc4ccccc4c3)NC(=O)[C@H](Cc3ccc(OCCN)cc3)NC(=O)[C@H](CCC(=O)N2)NC(=O)[C@H](CCC(N)=O)NC(=O)[C@H](Cc2c[nH]c3ccccc23)NC(=O)[C@H](C(C)C)NC1=O [Compound 71, K(1c)(6c)^†IVWQE(6c)[Y(2-aminoethoxy)][2-Nal][2-Me-Leu]E(1c)[3-(3-Quinolinyl)-Ala][3-(3-Pyridyl)-Ala]-[NHMe]]
